How the values were obtained:
[1] = Guest molecule concentration after incubation in initial medium without polymer (Comparative Example 1); assay type: physicochemical; details: 37° C.
How it was run: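 Dissolved guest content measured by HPLC of centrifuged supernatants (37° C., 13000 rpm, 5 min) sampled at 0.5 h, 3 h and 6 h. Incubation was polymer-free at 37° C.±0.5° C. in buffers of pH 2.0-7.4; nominal loading was set by maximum clinical dose.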

[2] = Binary supramolecular self-assembly systems of polymer and target: guest concentration over incubation time (Comparative Example 2); assay type: physicochemical; details: for Times that of the initial medium / Concentration of guest molecule in solution: 6 h
Experimental: Experiments were conducted according to the steps in Comparative Example 1, and quantitative analysis was carried out using the analytical method for each target to investigate the regulation ability […] stacking.

[3] = Binary (carrier), ternary and quaternary supramolecular self-assembly systems of polymer, carrier building block and target: guest concentration over incubation time (Examples 1-56); assay type: physicochemical; details: 6 h
Experimental: pH 2.0 hydrochloric acid, pH 4.5 acetate, and pH 6.5, pH 6.8, or pH 7.4 phosphate buffer solutions were prepared. The selection of each initial medium followed the principle that the solubility in the initial medium of the selected targets (or active ingredients) should low enough, but should meet the detection sensitivity and accuracy requirements of the corresponding analytical methods. Each buffer as initial media was placed in a 50 ml test tube with a stopper, shaken in a constant temperature air shaker at 37° C.±0.5° C., with an amplitude of 200 rpm, and incubated for 1 hour. […] Samples were taken at 0.5 h, 3 h and 6 h after incubation, centrifuged at 37° C., 13000 rpm for 5 minutes, and the supernatant was diluted at least 10 times with the mobile phase under the target analyte analytical method, filtered, the initial filtrate was discarded, and the continued filtrate was used as the test solution for injection analysis. The corresponding HPLC method under each target object item in Table 8 was used to determine the content of each target substance. When the solubility of the target in the initial medium is below the quantitative limit of the analytical method, a small amount of surfactant, such as sodium dodecyl sulfate (SDS), Tween20, or Tween80, can be added appropriately.
Experiments were conducted according to the steps in Comparative Example 1, and quantitative analysis was carried out using the analytical method for each target to investigate the regulation ability of each binary supramolecular self-assembly system built from 0.5% polymer and target on guest molecules stacking.
Ternary supramolecular self-assembly systems based on different polymers, carrier building blocks, and targets were built according to the experimental scheme in Table 12, to investigate the influence of synergistic regulation of the carrier building blocks and the polymers on the stacking of target molecules, as well as the stability of the supramolecular self-assembly systems jointly built by them over incubation time. The initial medium, quantitative analysis method, pre-treatment method, and initial theoretical concentration of the target, corresponding to each target molecule in the experiment, were consistent with those in Comparative Examples 1 and 2. After a target was added to the system, the target was uniformly dispersed by ultrasonication at 37° C. for half an hour and then shaken in a 37° C. constant temperature air shaker, and samples were collected after different incubation time, i.e. 0.5 h, 1 h, 2 h, 3 h, 4 h, and 6 h.

[4] = cited from earlier work
[5] = binary system with 0.5% polymer 101, incubation 0.5 h
[6] = binary system with 0.5% polymer 101, incubation 3 h
[7] = binary system with 0.5% polymer 101, incubation 6 h
[8] = binary system with 0.5% polymer 102, incubation 0.5 h
[9] = binary system with 0.5% polymer 102, incubation 3 h
[10] = binary system with 0.5% polymer 102, incubation 6 h
[11] = binary system with 0.5% polymer 103, incubation 0.5 h
[12] = binary system with 0.5% polymer 103, incubation 3 h
[13] = binary system with 0.5% polymer 103, incubation 6 h
[14] = binary system with 0.5% polymer 106, incubation 0.5 h
[15] = binary system with 0.5% polymer 106, incubation 3 h
[16] = binary system with 0.5% polymer 106, incubation 6 h
[17] = binary system with 0.5% polymer 107, incubation 0.5 h
[18] = binary system with 0.5% polymer 107, incubation 3 h
[19] = binary system with 0.5% polymer 107, incubation 6 h

SMILES	Concentration of the target in the solution measured after different incubation time [2, 5] [µg/mL]	Concentration of the target in the solution measured after different incubation time [2, 6] [µg/mL]	Concentration of the target in the solution measured after different incubation time [2, 7] [µg/mL]	Concentration of the target in the solution measured after different incubation time [2, 8] [µg/mL]	Concentration of the target in the solution measured after different incubation time [2, 9] [µg/mL]	Concentration of the target in the solution measured after different incubation time [2, 10] [µg/mL]	Concentration of the target in the solution measured after different incubation time [2, 11] [µg/mL]	Concentration of the target in the solution measured after different incubation time [2, 12] [µg/mL]	Concentration of the target in the solution measured after different incubation time [2, 13] [µg/mL]	Concentration of the target in the solution measured after different incubation time [2, 14] [µg/mL]	Concentration of the target in the solution measured after different incubation time [2, 15] [µg/mL]	Concentration of the target in the solution measured after different incubation time [2, 16] [µg/mL]	Concentration of the target in the solution measured after different incubation time [2, 17] [µg/mL]	Concentration of the target in the solution measured after different incubation time [2, 18] [µg/mL]	Concentration of the target in the solution measured after different incubation time [2, 19] [µg/mL]	LogD7.4 or Log P [4]	other results
CNC(=O)c1ccc(N2C(=S)N(c3ccc(C#N)c(C(F)(F)F)c3)C(=O)C2(C)C)cc1F [Enzalutamide]	272.9	221.8	193.8	90.1	75.5	72.2	102.4	88.4	84.4	150.2	131.1	128.2	236.9	151.4	137.8	4.16	Concentration of guest molecule measured after different incubated time ([1]; 0.5 h, 0.2% SDS in pH 6.8 phosphate buffer): 62.3 µg/mL; Concentration of guest molecule measured after different incubated time ([1]; 3 h, 0.2% SDS in pH 6.8 phosphate buffer): 57.1 µg/mL; Concentration of guest molecule measured after different incubated time ([1]; 6 h, 0.2% SDS in pH 6.8 phosphate buffer): 59.0 µg/mL; Concentration of the target in the solution measured after different incubation time ([2]; binary system with 0.5% polymer 110, incubation 0.5 h): 53.8 µg/mL; Concentration of the target in the solution measured after different incubation time ([2]; binary system with 0.5% polymer 110, incubation 3 h): 45.8 µg/mL; Concentration of the target in the solution measured after different incubation time ([2]; binary system with 0.5% polymer 110, incubation 6 h): 43.0 µg/mL; Times that of the initial medium ([2]; binary: 0.5% 102H): 1.7 times; Times that of the initial medium ([2]; binary: 0.5% 107): 1.9 times; Concentration of guest molecule in solution ([3]; binary: 0.25% 312): 135 µg/mL; Concentration of guest molecule in solution ([3]; binary: 0.25% 318): 175 µg/mL; Concentration of guest molecule in solution ([3]; quaternary: 0.25% 202 (102H+107) + 0.25% 312): 371 µg/mL; Concentration of guest molecule in solution ([3]; quaternary: 0.25% 202 (102H+107) + 0.25% 313): 533 µg/mL; Concentration of guest molecule in solution ([3]; quaternary: 0.25% 202 (102H+107) + 0.25% 318): 451 µg/mL; Concentration of guest molecule in solution ([3]; quaternary: 0.25% 202 (102H+107) + 0.25% 321): 623 µg/mL
COc1cc2nccc(Oc3ccc(NC(=O)NC4CC4)c(Cl)c3)c2cc1C(N)=O [Lenvatinib]	45.5	29.3	28.6	76.8	26.2	27.8	12.9	11.3	7.6	7.3	7.9	6.5	68.2	9.7	6.1	2.52	Concentration of guest molecule measured after different incubated time ([1]; 0.5 h, pH 6.8 phosphate buffer): 7.6 µg/mL; Concentration of guest molecule measured after different incubated time ([1]; 3 h, pH 6.8 phosphate buffer): 1.7 µg/mL; Concentration of guest molecule measured after different incubated time ([1]; 6 h, pH 6.8 phosphate buffer): 0.9 µg/mL; Concentration of the target in the solution measured after different incubation time ([2]; binary system with 0.5% polymer 104, incubation 0.5 h): 37.8 µg/mL; Concentration of the target in the solution measured after different incubation time ([2]; binary system with 0.5% polymer 104, incubation 3 h): 42.7 µg/mL; Concentration of the target in the solution measured after different incubation time ([2]; binary system with 0.5% polymer 104, incubation 6 h): 67.5 µg/mL; Concentration of guest molecule in solution ([2]; binary: 102H, % not stated at the place): 59.5 µg/mL; Concentration of guest molecule in solution ([2]; binary: 104, % not stated at the place): 47.6 µg/mL; Concentration of guest molecule in solution ([3]; quaternary: 0.25% 205 (102H+104) + 310): 116.4 µg/mL; Concentration of guest molecule in solution ([3]; quaternary: 0.25% 205 (102H+104) + 313, carrier % not stated): 112.1 µg/mL

Reference: patent publication US20250339399A1, “SUPRAMOLECULAR SELF-ASSEMBLY SYSTEM” (Beijing Creatron Institute of Pharmaceutical Research Co., …, priority 2022, published 2025)
